Data set [1] concerns human red blood cells (hRBCs). Nature of the data set: Hemolysis assay. The class given is cell-based. Particulars: red cells of human, 1 h. Here is the method:
Figure 2 (A) Hemolytic activity of the engineered peptides against human red blood cells (hRBCs). The hRBCs were incubated with equal amounts of the respective peptides dissolved in PBS for 1 h at 37 °C. (B) Cytotoxicity of the engineered peptides against RAW264.7. […] Data shown are three independent experiments.
The hemolytic activity of the peptides is determined by measuring the amount of hemoglobin released during the lysis of human erythrocytes at different concentrations of AMPs. Briefly, fresh, healthy human red blood cells (hRBCs) were collected and then washed three times with phosphate-buffered saline (PBS) buffer (pH 7.2) and centrifuged at 1000× g for 5 min. Each 50 µL sample of hRBCs was incubated with 50 µL of the respective peptide dissolved in PBS in a well of a 96-well plate for 1 h at 37 °C. After incubation, the samples were centrifuged at 1000× g for 5 min and the supernatants (50 μL) were transferred to a new 96-well microplate. The release of hemoglobin was measured by monitoring the OD at 570 nm (Tecan, Salzburg, Austria). Negative (hRBCs without AMP treatment) and positive (hRBCs treated with 0.1% TritonX-100) controls were used. The concentration of peptide that caused 5% hemolysis was considered the minimal hemolysis concentration (MHC). The test was repeated three times. The percent hemolysis was calculated using the following formula:(2) Percent hemolysis=A−A0/At−A0× 100% A0 and At represent 0% and 100% hemolysis as measured in 10 mM PBS and 0.2% Triton X-100, respectively.

Data set [2] has as its system E. coli ATCC 25,922. Nature of the data set: Flow cytometry membrane integrity assay (PI uptake). The data set is classed as cell-based. As to conditions: PI 10 ug/mL, 30 min at 4 °C. Here is the method: Figure 7 Flow cytometric analysis. Exponential phase E. coli cells were treated with GS, OIR3 and cellular fluorescence was analyzed by flow cytometry.
Membrane integrity assay. […] FACS flow cytometer (Becton–Dickinson, Franklin Lake, New Jersey, USA USA) was used to obtain the data with a laser excitation wavelength of 488 nm.

The subject of data set [3] is gram-negative strains tested. The data set can be described thus: Geometric mean of MICs, gram-negative strains. The class given is cell-based. As to conditions: 5 gram-negative strains; >128 apparently counted as 256; read-out: nGM (–), geometric mean of the MICs against gram-negative strains. As to the method: (§1) Briefly, the bacteria were incubated overnight at 37 °C with constant shaking at 220 rpm, then were transferred to new MH broth (MHB) medium until they reached the logarithmic phase of growth. The bacteria were then diluted to 10^5 (CFU)/mL in MHB. The peptides were dissolved and diluted in 0.01% acetic acid and 0.2% bovine serum albumin (BSA) at various concentrations (0.5–128 μM) in each well of sterile 96-well plates and incubated for 20 h at 37 °C. […] The test was repeated three times.

A further data set relates to S. aureus 29213. The data set can be described thus: microbe, parasite or virus in culture. The data set is classed as cell-based, Staphylococcus aureus. Particulars: 29213, 20 h. Here is the method:
(§2) The test strains, including Gram-negative E. coli ATCC25922, E. coli ATCC 1005, S. typhimurium C7731, P. aeruginosa ATCC 27853, S. Typhimurium 14028, Gram-positive S. aureus ATCC29213, S. aureus ATCC 25923, S. epidermidis ATCC 12228 and S. aureus 43300, were obtained from the School of Veterinary Medicine, Northeast Agricultural University (Harbin, China).
as §1

In a further data set the test system is S. aureus 25923. Nature of the data set: microbe, parasite or virus in culture. Particulars: 25923, 20 h. The class given is cell-based, Staphylococcus aureus. As to the method:
as §2, §1

In another data set the test system is S. typhimurium 14028. The data set can be described thus: microbe, parasite or virus in culture. The data set is classed as cell-based. Particulars: 14028, 20 h. Here is the method:
as §2, §1

Another data set relates to P. aeruginosa 27853. Nature of the data set: microbe, parasite or virus in culture. As to conditions: 27853, 20 h; read-out: MIC. The data set is classed as cell-based. Here is the method:
as §2, §1

A further data set has as its system S. typhimurium 7731. The data set can be described thus: microbe, parasite or virus in culture. The data set is classed as cell-based. As to conditions: 7731, 20 h. As to the method:
as §2, §1

The next data set relates to S. epidermidis 12228. The data set can be described thus: microbe, parasite or virus in culture. The data set is classed as cell-based. As to conditions: 12228, 20 h. As to the method: as §2, §1
The test system of data set [4] is E. coli ATCC 25,922. Nature of the data set: Swimming motility assay. The data set is classed as cell-based. Particulars: 0.3% agar; OIR3, IR3, DIR3 at 4 μM and 8 μM; GS at all tested concentrations (1–8 µM). As to the method: Figure 10 Swimming motility of E. coli ATCC 25,922 treated with OIR3, IR3, DIR3 and GS. Swim plates were prepared using 0.3% agar and inoculated from overnight cultures standardized to an optical density at 600 nm of 1.0. Images were taken after 20 h incubation at 37 °C. Data shown are the mean ± SD of three independent experiments.
Since E. coli ATCC 25,922 cell walls have flagella, their swimming motility can be measured in LB medium containing 0.3% agar. E. coli ATCC 25,922 bacteria were incubated overnight at 37 °C in a shaker until the OD600 = 1.0, then inoculated into 0.3% agar medium containing 1 µM, 2 µM, 4 µM or 8 µM of antimicrobial peptide and incubated again overnight at 37 °C. The swimming motility for each was then measured; each experiment was repeated three times.

The subject of data set [5] is lipopolysaccharide (LPS, derived from E. coli 055: B5). Nature of the data set: BODIPY-TR-cadaverine displacement assay (LPS binding). As to the method:
Figure 3 (A) The combining ability of OIR3 and gramicidin S (GS; 0.5 μM, 1 μM, 2 μM, […], 8 μM, 16 μM and 32 μM) with lipopolysaccharide (LPS). (B) SPR spectroscopy of the interaction kinetics of the peptides and LPS. The peptides were immobilized on a CM5 sensor chip as a ligand, and LPS was diluted in a series of concentrations (3.125, 6.25, 12.5, 25 and 50 μg/mL). Data shown are three independent experiments.
The BODIPY-TR-cadaverine (BC) displacement assay was previously used to quantify the binding affinities of test compounds to LPS [61]. The fluorescent dye BC is quenched by binding to LPS, causing its fluorescence to disappear. When the antimicrobial peptide is added, if the binding of the peptide to LPS is stronger, BODIPY-TR-cadaverine will be released and the fluorescence restored. Briefly, in a 96-well plate, an equal volume with a different concentration (0.5–64 μM) of peptide was added to a mixture (100 μL) of LPS (25 μg/mL) and BC (2.5 μg/mL) in Tris buffer (pH 7.4), and the background fluorescence was recorded (excitation wavelength 580 nm, emission wavelength 620 nm). The changes in fluorescence were recorded using a Tecan Infinite M200 PRO (Tecan, San Jose, CA, USA); polymyxin B was used as a positive control. Each test was performed independently, in triplicate.

The subject of data set [6] is all the 9 bacteria tested. The data set can be described thus: Geometric mean of MICs, all 9 bacteria. The data set is classed as cell-based. As to conditions: for GM MIC (range of Gram-negative and Gram-positive geometric means): Table 2; for tGM, geometric mean of the MICs against all the 9 bacteria: all 9 bacteria tested. As to the method:
as §1

The record followed here is PMC6928678, “Simplified Head-to-Tail Cyclic Polypeptides as Biomaterial-Associated Antimicrobials with Endotoxin Neutralizing and Anti-Inflammatory Capabilities” (International Journal of Molecular Sciences, 2019).

Converted amounts (≈) assume the structure as drawn. Where a SMILES comes first, the peptide text is derived from it. [ ]: non-standard residue; d: D form. Orn = NCCC[C@H](N)C(=O)O

Turning to `CC(C)C[C@@H]1NC(=O)[C@H](CCCN)NC(=O)[C@H](C(C)C)NC(=O)[C@@H]2CCCN2C(=O)[C@@H](Cc2ccccc2)NC(=O)[C@H](CC(C)C)NC(=O)[C@H](CCCN)NC(=O)[C@H](C(C)C)NC(=O)[C@@H]2CCCN2C(=O)[C@@H](Cc2ccccc2)NC1=O` [GS, gramicidin S, reference compound] (cyclo(V[Orn]L[dF]PV[Orn]L[dF]P)), the “MHC5, minimum hemolytic concentration that induced ≥5% hemolysis” value in data set [1] is given as 8 µM. Also, the “percentage of PI-positive cells” value with E. coli ATCC 25,922 [2] (1/2× MIC (OIR3 1 µM, GS 2 µM)) is on record as 7.3%; in the data set with E. coli ATCC 25,922 [2] (1× MIC (OIR3 2 µM, GS 4 µM)), 37.8%; in the data set with E. coli ATCC 25,922 [2] (2× MIC (OIR3 4 µM, GS 8 µM)), 93.3%. In addition, the MIC is reported as 6.1 µM (≈ 6.96 µg/mL) in data set [3]; 2 µM (≈ 2.28 µg/mL) against S. aureus 29213; 2 µM (≈ 2.28 µg/mL) against S. aureus 25923; 16 µM (≈ 18.3 µg/mL) against S. typhimurium 14028; 4 µM (≈ 4.57 µg/mL) in the data set with P. aeruginosa 27853; 8 µM (≈ 9.13 µg/mL) against S. typhimurium 7731. For the same compound, the MIC in the data set on S. epidermidis 12228 was 2 µM (≈ 2.28 µg/mL). In addition, the “inhibition of swimming motility” value with E. coli ATCC 25,922 [4] was “almost no inhibition”. In addition, the “combining ability with LPS” value in data set [5] (all concentrations tested (0.5–32 μM)) is “relatively low”. Further, the “GM MIC (range of Gram-negative and Gram-positive geometric means)” value in data set [6] fell in the range of 2 to 6.1 µM. Further, the “tGM, geometric mean of the MICs against all the 9 bacteria” value in data set [6] stood at 3.7 µM.

For `CC[C@H](C)[C@@H]1NC(=O)[C@H](CCCNC(=N)N)NC(=O)[C@H]([C@@H](C)CC)NC(=O)[C@@H]2CCCN2C(=O)[C@H](CCCNC(=N)N)NC(=O)[C@H]([C@@H](C)CC)NC(=O)[C@H](CCCNC(=N)N)NC(=O)[C@H]([C@@H](C)CC)NC(=O)[C@H](CCCNC(=N)N)NC(=O)[C@H]([C@@H](C)CC)NC(=O)[C@@H]2CCCN2C(=O)[C@H](CCCNC(=N)N)NC(=O)[C@H]([C@@H](C)CC)NC(=O)[C@H](CCCNC(=N)N)NC1=O` [OIR3] (cyclo(IRIRIRPIRIRIRP)), in [1], the “MHC5, minimum hemolytic concentration that induced ≥5% hemolysis” value is more than 128 µM. Also, the “percentage of PI-positive cells” value is listed as 25% in the data set with E. coli ATCC 25,922 [2] (1/2× MIC (OIR3 1 µM, GS 2 µM)); 62% with E. coli ATCC 25,922 [2] (1× MIC (OIR3 2 µM, GS 4 µM)); 76.4% in the data set on E. coli ATCC 25,922 [2] (2× MIC (OIR3 4 µM, GS 8 µM)). In addition, the MIC in data set [3] stood at 3.5 µM (≈ 6.34 µg/mL); against S. aureus 29213 it was 4 µM (≈ 7.24 µg/mL); in the data set with S. aureus 25923, 4 µM (≈ 7.24 µg/mL); against S. typhimurium 14028 it was 4 µM (≈ 7.24 µg/mL); in the data set on P. aeruginosa 27853, 8 µM (≈ 14.5 µg/mL); in the data set on S. typhimurium 7731, 4 µM (≈ 7.24 µg/mL). The MIC in the data set on S. epidermidis 12228 amounted to 4 µM (≈ 7.24 µg/mL). For the same compound, the “inhibition of swimming motility” value with E. coli ATCC 25,922 [4] is listed as “significantly inhibit”. This compound came in with an LPS-binding activity in [5] (2 μM peptide, BODIPY-TR-cadaverine displacement, LPS 25 μg/mL, Tris buffer pH 7.4) of 81%. For the same compound, in data set [5] (4 μM peptide, BODIPY-TR-cadaverine displacement, LPS 25 μg/mL, Tris buffer pH 7.4), the “LPS neutralized (LPS-binding activity)” value came to 98%. For the same compound, the “GM MIC (range of Gram-negative and Gram-positive geometric means)” value in data set [6] fell in the range of 3.5 to 4.0 µM. In addition, the “tGM, geometric mean of the MICs against all the 9 bacteria” value in data set [6] amounted to 3.7 µM.
